Like-named read-outs stand apart in the source and are kept apart here.
Key:
[1] = tested on: T-Rex 293 cell line SC3 cells lacking increased expression of androgen receptor protein; test: Cellular growth inhibition assay, T-Rex 293 SC3 cells without doxycycline (CellTiter-Glo, 72 hours); type: cell-based; conditions: T-Rex 293 cell line SC3 cells not exposed to doxycycline (lacking increased androgen receptor expression)
Summary of the method: (§1)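 Growth inhibition is measured in an inducible AR-expressing T-Rex 293 clone, SC3, cultured with or without 10 ng/mL doxycycline in hormone-depleted medium. Test compounds are applied for 72 hours. GI50 values derive from CellTiter-Glo 2.0 signal fitted by four-parameter regression.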

VCaP cells = test: Cellular growth inhibition assay for VCaP cells (CellTiter-Glo, 72 hours); type: cell-based, human
Summary of the method: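 Luminescent viability signal after 72 h of compound exposure gave GI50 values by four-parameter nonlinear regression. Compounds were added in 0.5% DMSO to cells plated 24 h earlier at 5000/well in DMEM containing 10% FBS.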

[2] = tested on: T-Rex 293 cell line SC3 cells having increased expression of androgen receptor protein due to exposure to doxycycline; test: Cellular growth inhibition assay, T-Rex 293 SC3 cells with doxycycline (CellTiter-Glo, 72 hours); type: cell-based; conditions: T-Rex 293 SC3 cells with increased androgen receptor expression due to doxycycline (10 ng/mL)
Summary of the method: as §1

| Compound | GI50 (VCaP cells) [µM] | GI50 (VCaP cells; Homo sapiens, VCaP, 72 h) [µM] | GI50 [1] [µM] | GI50 [2] [µM] | GI50 ([1]; 72 h) [µM] | GI50 ([2]; 72 h) [µM] |
| --- | --- | --- | --- | --- | --- | --- |
| Cc1sc2c(c1C)C(c1ccc(CC3CC4(CCCN(c5ccc(C(=O)N[C@H]6CC[C@H](Oc7ccc(C#N)c(Cl)c7)CC6)nn5)C4)C3)cn1)=NC(Cc1ncco1)c1nnc(C)n1-2 (stereo partly drawn) [I-769] | < 0.5 |  | > 3 | > 3 |  |  |
| Cc1sc2c(c1C)C(c1ccc(CC3CC4(CCCN(c5ccc(C(=O)N[C@H]6CC[C@H](Oc7ccc(C#N)c(Cl)c7)CC6)nn5)C4)C3)cn1)=NC(Cc1ncco1)c1nnc(C)n1-2 (stereo partly drawn) [I-770] | < 0.5 |  | < 0.5 | < 0.5 |  |  |
| Cc1sc2c(c1C)C(c1ccc(CC3CC4(CCCN(c5ccc(C(=O)N[C@H]6CC[C@H](Oc7ccc(C#N)c(Cl)c7)CC6)nn5)C4)C3)cn1)=NC(Cc1ncco1)c1nnc(C)n1-2 (stereo partly drawn) [I-771] | < 0.5 |  | < 0.5 | < 0.5 |  |  |
| Cc1sc2c(c1C)C(c1ccc(N3CC(C4CCC(Cc5ccc(C(=O)N[C@H]6CC[C@H](Oc7ccc(C#N)c(Cl)c7)CC6)nn5)CC4)C3)cc1)=N[C@@H](Cc1ncco1)c1nnc(C)n1-2 (stereo partly drawn) [I-772] |  | < 0.5 |  |  | 0.5 to 1.5 | < 0.5 |
| Cc1sc2c(c1C)C(c1ccc(NCC3(F)CCN(c4ncc(C(=O)N[C@H]5CC[C@H](Oc6ccc(C#N)c(Cl)c6)CC5)cn4)CC3)cc1)=NC(Cc1ncco1)c1nnc(C)n1-2 (stereo partly drawn) [I-784] |  | < 0.5 |  |  | < 0.5 | < 0.5 |
| Cc1sc2c(c1C)C(c1ccc(N3C4CCC3CN(c3ncc(C(=O)N[C@H]5CC[C@H](Oc6ccc(C#N)c(Cl)c6)CC5)cn3)C4)cc1)=NC(Cc1ncco1)c1nnc(C)n1-2 (stereo partly drawn) [I-785] |  | > 3 | 0.5 to 1.5 | < 0.5 |  |  |
| Cc1sc2c(c1C)C(c1ccc(NCC3CCN(c4ncc(C(=O)N[C@H]5CC[C@H](Oc6ccc(C#N)c(Cl)c6)CC5)cn4)CC3)cc1)=NC(Cc1ncco1)c1nnc(C)n1-2 (stereo partly drawn) [I-786] |  | < 0.5 |  |  | < 0.5 | < 0.5 |
| Cc1sc2c(c1C)C(c1ccc(NCC3CCCCN3c3ncc(C(=O)N[C@H]4CC[C@H](Oc5ccc(C#N)c(Cl)c5)CC4)cn3)cc1)=NC(Cc1ncco1)c1nnc(C)n1-2 (stereo partly drawn) [I-787] |  | 0.5 to 1.5 |  |  | < 0.5 | < 0.5 |
| Cc1sc2c(c1C)C(c1ccc(NC3CCCN(c4ncc(C(=O)N[C@H]5CC[C@H](Oc6ccc(C#N)c(Cl)c6)CC5)cn4)CC3)cc1)=NC(Cc1ncco1)c1nnc(C)n1-2 (stereo partly drawn) [I-789] |  | < 0.5 |  |  | < 0.5 | < 0.5 |
| Cc1sc2c(c1C)C(c1ccc(N[C@H]3CC[C@H](Nc4ncc(C(=O)N[C@H]5CC[C@H](Oc6ccc(C#N)c(Cl)c6)CC5)cn4)CC3)cc1)=NC(Cc1ncco1)c1nnc(C)n1-2 (stereo partly drawn) [I-790] |  | < 0.5 |  |  | < 0.5 | < 0.5 |
| Cc1sc2c(c1C)C(c1ccc(N3CCC(N4CCN(c5ncc(C(=O)N[C@H]6CC[C@H](Oc7ccc(C#N)c(Cl)c7)CC6)cn5)CC4)CC3)cc1)=NC(Cc1ncco1)c1nnc(C)n1-2 (stereo partly drawn) [I-792] |  | < 0.5 |  |  | < 0.5 | < 0.5 |
| Cc1sc2c(c1C)C(c1ccc(NCCCN3CCN(c4ncc(C(=O)N[C@H]5CC[C@H](Oc6ccc(C#N)c(Cl)c6)CC5)cn4)CC3)cc1)=NC(Cc1ncco1)c1nnc(C)n1-2 (stereo partly drawn) [I-793] |  | < 0.5 |  |  | < 0.5 | < 0.5 |
| Cc1sc2c(c1C)C(c1ccc(N3CCOC4(CCN(c5ncc(C(=O)N[C@H]6CC[C@H](Oc7ccc(C#N)c(Cl)c7)CC6)cn5)CC4)C3)cc1)=NC(Cc1ncco1)c1nnc(C)n1-2 (stereo partly drawn) [I-794] |  | < 0.5 |  |  | > 3 | < 0.5 |
| Cc1sc2c(c1C)C(c1ccc(N3CC[C@@H](CNc4ncc(C(=O)N[C@H]5CC[C@H](Oc6ccc(C#N)c(Cl)c6)CC5)cn4)C3)cc1)=NC(Cc1ncco1)c1nnc(C)n1-2 (stereo partly drawn) [I-795] |  | 0.5 to 1.5 |  |  | < 0.5 | < 0.5 |
| Cc1sc2c(c1C)C(c1ccc(N[C@H]3CC[C@H](CNc4ncc(C(=O)N[C@H]5CC[C@H](Oc6ccc(C#N)c(Cl)c6)CC5)cn4)CC3)cc1)=NC(Cc1ncco1)c1nnc(C)n1-2 (stereo partly drawn) [I-796] |  | < 0.5 |  |  | < 0.5 | < 0.5 |
| Cc1sc2c(c1C)C(c1ccc(N3CCCC(CN(C)c4ncc(C(=O)N[C@H]5CC[C@H](Oc6ccc(C#N)c(Cl)c6)CC5)cn4)C3)cc1)=NC(Cc1ncco1)c1nnc(C)n1-2 (stereo partly drawn) [I-797, N-((1r,4r)-4-(3-chloro-4-cyanophenoxy)cyclohexyl)-2-(methyl((1-(4-(2,3,9-trimethyl-6-(oxazol-2-ylmethyl)-6H-thieno[3,2-f][1,2,4]triazolo[4,3-a][1,4]diazepin-4-yl)phenyl)piperidin-3-yl)methyl)amino)pyrimidine-5-carboxamide] |  | < 0.5 |  |  | < 0.5 | < 0.5 |
| Cc1sc2c(c1C)C(c1ccc(NC3CC4CCCC(C3)N4c3ncc(C(=O)N[C@H]4CC[C@H](Oc5ccc(C#N)c(Cl)c5)CC4)cn3)cc1)=NC(Cc1ncco1)c1nnc(C)n1-2 (stereo partly drawn) [I-799] |  | < 0.5 | > 3 | < 0.5 |  |  |
| Cc1sc2c(c1C)C(c1ccc(N3C4CC(=O)CC3CN(c3ncc(C(=O)N[C@H]5CC[C@H](Oc6ccc(C#N)c(Cl)c6)CC5)cn3)C4)cc1)=NC(Cc1ncco1)c1nnc(C)n1-2 (stereo partly drawn) [I-802] |  | < 0.5 | 0.5 to 1.5 | < 0.5 |  |  |

Continued, in another order:

| GI50 (VCaP cells) [µM] | GI50 (VCaP cells; Homo sapiens, VCaP, 72 h) [µM] | Compound | GI50 [1] [µM] | GI50 [2] [µM] | GI50 ([1]; 72 h) [µM] | GI50 ([2]; 72 h) [µM] |
| --- | --- | --- | --- | --- | --- | --- |
|  | < 0.5 | Cc1sc2c(c1C)C(c1ccc(N3CCN(C4CCN(c5ncc(C(=O)N[C@H]6CC[C@H](Oc7ccc(C#N)c(Cl)c7)CC6)cn5)CC4)CC3)cc1)=NC(Cc1ncco1)c1nnc(C)n1-2 (stereo partly drawn) [I-798] |  |  | < 0.5 | < 0.5 |
|  | < 0.5 | Cc1sc2c(c1C)C(c1ccc(NCCC3CCCN(c4ncc(C(=O)N[C@H]5CC[C@H](Oc6ccc(C#N)c(Cl)c6)CC5)cn4)C3)cc1)=NC(Cc1ncco1)c1nnc(C)n1-2 (stereo partly drawn) [I-800] |  |  | < 0.5 | < 0.5 |
|  | < 0.5 | Cc1sc2c(c1C)C(c1ccc(N[C@@H]3CCC[C@H](Nc4ncc(C(=O)N[C@H]5CC[C@H](Oc6ccc(C#N)c(Cl)c6)CC5)cn4)C3)cc1)=NC(Cc1ncco1)c1nnc(C)n1-2 (stereo partly drawn) [I-801] |  |  | < 0.5 | < 0.5 |
|  | < 0.5 | Cc1sc2c(c1C)C(c1ccc(N[C@H]3CCCCN(c4ncc(C(=O)N[C@H]5CC[C@H](Oc6ccc(C#N)c(Cl)c6)CC5)cn4)C3)cc1)=NC(Cc1ncco1)c1nnc(C)n1-2 (stereo partly drawn) [I-803] |  |  | > 3 | < 0.5 |
|  | < 0.5 | Cc1sc2c(c1C)C(c1ccc(N3CCC4(CCCN(c5ncc(C(=O)N[C@H]6CC[C@H](Oc7ccc(C#N)c(Cl)c7)CC6)cn5)C4)C3)cc1)=NC(Cc1ncco1)c1nnc(C)n1-2 (stereo partly drawn) [I-804] |  |  | > 3 | < 0.5 |
|  | < 0.5 | Cc1sc2c(c1C)C(c1ccc(N3C[C@@H]4[C@H](C3)[C@H]4Nc3ncc(C(=O)N[C@H]4CC[C@H](Oc5ccc(C#N)c(Cl)c5)CC4)cn3)cc1)=NC(Cc1ncco1)c1nnc(C)n1-2 (stereo partly drawn) [I-805] |  |  | < 0.5 | < 0.5 |
|  | < 0.5 | Cc1sc2c(c1C)C(c1ccc(NCCCC3CCN(c4ncc(C(=O)N[C@H]5CC[C@H](Oc6ccc(C#N)c(Cl)c6)CC5)cn4)CC3)cc1)=NC(Cc1ncco1)c1nnc(C)n1-2 (stereo partly drawn) [I-806] |  |  | < 0.5 | < 0.5 |
|  | < 0.5 | Cc1sc2c(c1C)C(c1ccc(NC[C@H]3CC[C@H](CNc4ncc(C(=O)N[C@H]5CC[C@H](Oc6ccc(C#N)c(Cl)c6)CC5)cn4)CC3)cc1)=NC(Cc1ncco1)c1nnc(C)n1-2 (stereo partly drawn) [I-807] |  |  | < 0.5 | < 0.5 |
|  | 0.5 to 1.5 | Cc1sc2c(c1C)C(c1ccc(NCC3CC4(C3)CN(c3ncc(C(=O)N[C@H]5CC[C@H](Oc6ccc(C#N)c(Cl)c6)CC5)cn3)C4)cc1)=NC(Cc1ncco1)c1nnc(C)n1-2 (stereo partly drawn) [I-808] |  |  | > 3 | < 0.5 |
|  | < 0.5 | Cc1sc2c(c1C)C(c1ccc(C3CCC4(CCN(c5ccc(C(=O)N[C@H]6CC[C@H](Oc7ccc(C#N)c(Cl)c7)CC6)nn5)C4)C3)cc1)=N[C@@H](C)c1nnc(C)n1-2 (stereo partly drawn) [I-821, N-[4-(3-chloro-4-cyano-phenoxy)cyclohexyl]-6-[8-[4-[(9S)-4,5,9,13-tetramethyl-3-thia-1,8,11,12-tetrazatricyclo[8.3.0.02,6]trideca-2(6),4,7,10,12-pentaen-7-yl]phenyl]-2-azaspiro[4.4]nonan-2-yl]pyridazine-3-carboxamide] |  |  | < 0.5 | < 0.5 |
| < 0.5 |  | Cc1sc2c(c1C)C(c1ccc(C3CCC4(CCN(c5ccc(C(=O)N[C@H]6CC[C@H](Oc7ccc(C#N)c(Cl)c7)CC6)nn5)C4)C3)cc1)=N[C@@H](C)c1nnc(C)n1-2 (stereo partly drawn) [I-822, N-[4-(3-chloro-4-cyano-phenoxy)cyclohexyl]-6-[8-[4-[(9S)-4,5,9,13-tetramethyl-3-thia-1,8,11,12-tetrazatricyclo[8.3.0.02,6]trideca-2(6),4,7,10,12-pentaen-7-yl]phenyl]-2-azaspiro[4.4]nonan-2-yl]pyridazine-3-carboxamide] | < 0.5 | < 0.5 |  |  |
| < 0.5 |  | Cc1sc2c(c1C)C(c1ccc(C3CCC4(CCN(c5ccc(C(=O)N[C@H]6CC[C@H](Oc7ccc(C#N)c(Cl)c7)CC6)nn5)C4)C3)cc1)=N[C@@H](C)c1nnc(C)n1-2 (stereo partly drawn) [I-823, N-[4-(3-chloro-4-cyano-phenoxy)cyclohexyl]-6-[8-[4-[(9S)-4,5,9,13-tetramethyl-3-thia-1,8,11,12-tetrazatricyclo[8.3.0.02,6]trideca-2(6),4,7,10,12-pentaen-7-yl]phenyl]-2-azaspiro[4.4]nonan-2-yl]pyridazine-3-carboxamide] | < 0.5 | < 0.5 |  |  |

Source: patent US20260109707A1, “HETEROBIFUNCTIONAL COMPOUNDS AND METHODS OF TREATING DISEASE” (Halda Therapeutics OpCo. Inc., priority 2022, published 2026)
